In patent US20220288077A1, “PROSTATITIS TREATMENT” (NATIONAL INSTITUTE OF BIOLOGICAL SCIENCES, priority 2019, published 2022):

What was measured:
rat EAP model = conditions: cited from earlier work
[1] = system: carrageenan-induced rat prostatitis model; assay: Carrageenan-induced rat prostatitis model: prostate weight assessment (prostate index); assay type: in vivo; conditions: for prostate index (ratio of prostate gland wet weight/body weight): seven days after carrageenan, model group 2.15±0.30 mg/g
Description: (§1) Adult male Sprague-Dawley rats (250-350 g body weight) were used for the experiments. All animals were acclimated for 1 week before any experimental procedures.
(§2) All the SD rats were randomly divided into different groups (n=8-10): control group, model group, and compounds-treated groups. For injection of carrageenan or saline, rats were anesthetized with 4% chloral hydrate and were fixed in a supine position. Then, the lower abdomen above the penis of rats was shaved and the skin in this area sterilized using 3 applications of 75% medical alcohol. A small midline incision was made in the sterile area, then the bladder and the prostate carefully exposed. With a 30-gauge needle, 50 ul sterile suspension of 3% carrageenan (Sigma, MO, USA) or saline (sham group) was injected into both right and left ventral lobes of the prostate gland. Different doses of RIPA-56 (12.5 mg/kg, 25 mg/kg, IP) or Finasteride (5 mg/kg, PO) were administrated to rats before (−17 min) and after (once every 12 h) carrageenan injection. While an equal amount of solvents were intraperitoneally and orally injected to control rats.
Seven days after carrageenan injection, rats were sacrificed and the prostates were harvested. Ventral and dorsolateral lobes of prostate glands were removed by cutting the ducts at the urethral connection and weighed immediately after removal. The prostate index (ratio of prostate gland wet weight/body weight) was calculated.

[2] = system: carrageenan-induced male rat prostate disease model; assay: Carrageenan-induced male rat prostate disease model: representative RIP1, RIP3 and MLKL inhibitors; assay type: in vivo; conditions: list after the methods of the example; protocols based on RIPA-56
Protocol: Experimental protocols for the compounds of Table 1 were based on those used for RIPA-56. Each inhibitor was intraperitoneally or orally administrated to rat before carrageenan treatment, at the dose of 20 mg/kg to 100 mg/kg.
Each inhibitor was intraperitoneally or orally administrated to rat before carrageenan treatment, at the dose of 20 mg/kg to 100 mg/kg.
as §2, with “Then, the lower abdomen above the penis of rats was shaved and the skin in this area sterilized using 3 applications of 75% medical alcohol.” left out, “Different doses of RIPA-56 (12.5 mg/kg, 25 mg/kg, IP) or Finasteride (5 mg/kg, PO) were administrated to rats before (−17 min) and after (once every 12 h) carrageenan injection.” left out

[3] = system: carrageenan-induced rat prostatitis model; assay: Carrageenan-induced rat prostatitis model: histological analysis of prostate (H & E); assay type: in vivo; conditions: FIG. 1 C
Description: as §1
as §2, with “While an equal amount of solvents were intraperitoneally and orally injected to control rats.” left out
For histological analysis, one part of the prostate was fixed in 10% neutral buffered formalin for 24 h, dehydrated in ethanol, cleared in xylene, and embedded in paraffin blocks. […] Each slide was evaluated randomly in 3 different areas by an independent investigator unaware of the animal grouping using a microscope.

aged mice = conditions: seminal vesicles, seminiferous tubules, sperm production, reproductive capacity; cited from earlier work
TNFα = assay: Carrageenan-induced rat prostatitis model: TNFα in prostate homogenate (ELISA); assay type: in vivo; conditions: 25 mg/kg intraperitoneal B.I.D; per mg prostate homogenate protein; model 3.04±2.28, sham 0.52±0.26
Description: as §1
as §2, with “Different doses of RIPA-56 (12.5 mg/kg, 25 mg/kg, IP) or Finasteride (5 mg/kg, PO) were administrated to rats before (−17 min) and after (once every 12 h) carrageenan injection. While an equal amount of solvents were intraperitoneally and orally injected to control rats.” left out
Part of rat prostate were weighed, mixed with cell lysis buffer (500 μl buffer per 100 mg tissue) and homogenized using FastPrep-24 homogenizer (MP Biomedicals). […] The supernatant was collected, and the total protein concentration was measured with the Bradford protein assay method. […] The level of cytokines was determined using rat TNFα, IL-1β and IL-6 ELISA kit (Biolegend or ProteinTech), and normalized to prostate protein concentration.

Compound: CCOc1ccccc1OCCN[C@H](C)Cc1ccc(OC)c(S(N)(=O)=O)c1 [tamsulosin]
- anti-inflammatory efficacy (rat EAP model): partial anti-inflammatory efficacy

Compound: CC(C)(C)NC(=O)[C@H]1CC[C@H]2[C@@H]3CC[C@H]4NC(=O)C=C[C@]4(C)[C@H]3CC[C@]12C [finasteride]
- decrease of the prostate index of carrageenan-treated rats ([1]; 5 mg/kg orally B.I.D): 23%

Compound: CC(=O)N1CCC(C(=O)N2N=CC[C@H]2c2cc(F)cc(F)c2)CC1 [(S)-1-(4-(5-(3,5-difluorophenyl)-4,5-dihydro-1H-pyrazole-1-carbonyl)piperidin-1-yl)ethanone]
- listed under heading Active RIP1 Inhibitors [2]: Active

Compound: CCC(C)(C)C(=O)N(O)Cc1ccccc1 [RIPA-56]
- inflammatory response in the prostate (histopathology) ([3]; RIPA-56 treated rats vs disease-model group): less severe than the disease-model group
- inflammatory cells in the interstitial space (histopathology) ([3]; RIPA-56 treated rats): Only few inflammatory cells
- protection of aged mice from reproductive system aging (aged mice): can protect aged mice from seminal vesicles enlargement
- prostate index (ratio of prostate gland wet weight/body weight) ([1]; 12.5 mg/kg intraperitoneal B.I.D): 1.99 ± 0.41 mg/g
- prostate index (ratio of prostate gland wet weight/body weight) ([1]; 25 mg/kg intraperitoneal B.I.D): 1.82 ± 0.22 mg/g
- inhibition to the prostate enlargement and edema ([1]; 12.5 and 25 mg/kg intraperitoneal B.I.D): dose-dependent inhibition
- TNFα level in the prostate homogenate (TNFα): 1.02 ± 0.37 pg/mg

Compound: CC(C)(C)C(=O)N1N=CC[C@H]1c1ccccc1 [GSK963, (S)-2,2-dimethyl-1-(5-phenyl-4,5-dihydro-1H-pyrazol-1-yl)propan-1-on]
- listed under heading Active RIP1 Inhibitors [2]: Active

Compound: CCC(C)(C)C(=O)N(O)Cc1ccccc1 [N-Benzyl-N-hydroxy-2,2-dimethylbutanamide]
- listed under heading Active RIP1 Inhibitors [2]: Active

Compound: O=C(N1CCCC1c1cccc(F)c1)C1(C(F)(F)F)CCC1 (centres unmarked) [(2-(3-fluorophenyl)pyrrolidin-1-yl)(1-(trifluoromethyl)cyclobutyl)methanone]
- listed under heading Active RIP1 Inhibitors [2]: Active

Compound: CCC(C)(C)C(=O)N(O)Cc1ccc(F)cc1 [N-(4-Fluorobenzyl)-N-hydroxy-2,2-dimethylbutanamide]
- listed under heading Active RIP1 Inhibitors [2]: Active

Compound: Cc1cccc2c(CC3NC(=O)N(C)C3=O)c[nH]c12 (centres unmarked) [3-methyl-5-((7-methyl-1H-indol-3-yl)methyl)imidazolidine-2,4-dione]
- listed under heading Active RIP1 Inhibitors [2]: Active

Compound: CN1C(=O)[C@@H](NC(=O)c2n[nH]c(Cc3ccccc3)n2)COc2ccccc21 [GSK2982772, (S)-5-benzyl-N-(5-methyl-4-oxo-2,3,4,5-tetrahydrobenzo[b]-[1,4]oxazepin-3-yl)-1H-1,2,4-triazole-3-carboxamide]
- listed under heading Active RIP1 Inhibitors [2]: Active

Compound: C#CCn1c(=O)n(C)c(=O)c2c1nc(S(C)(=O)=O)n2C [TC13-106, 1,7-dimethyl-8-(methylsulfonyl)-3-(prop-2-ynyl)-1H-purine-2,6(3H,7H)-dione]
- listed under heading Active MLKL Inhibitors [2]: Active
